Values after ≈ are worked out from the molar mass of the structure shown. Read-outs that look alike come from different tables or passages of the source.
Assays:
[1] = test system: HS5, RWPE-1, C4–2B, PC3-ML, ARCaP-M and RM1-BM cells; experiment: Colony formation (clonal) assay; format: cell-based, human and murine; settings: 50 μM, six repeated doses over a two-week period, tumor and non-tumor cells
Experimental: 200 cells/well were seeded in triplicate in 6-well plates. […] The colonies were fixed with ice-cold Methanol and stained with 0.5% crystal violet and counted.
Fig. 1. Primary characterization of IVMT-Rx-4. A) Chemical structure (upper panel) and synthesis scheme (lower panel). […] All proteins were extracted, and Western blotting was performed immediately after heating. Quantifications were obtained in the absence (control) or presence of IVMT-Rx-4 and values are presented as percentage of RT (room temperature) normalized for the experimental groups (control, IVMT-Rx-4). SOD (Superoxide dismutase) was used as an endogenous control. […] Colonies were stained with crystal violet and counted (n = 3 ± SD; ns: non-significant). […] Invaded cells were stained with crystal violet. Top panel: representative photograph of invaded cells under different experimental settings. Bottom panel: graphical representation of number of invaded cells/field for different cell lines (n = 3 ± SD; * p < 0.05).

[2] = Thermodynamic solubility in PBS, pH 7.4; format: physicochemical
[3] = Log D by shake flask (pH 7.4); format: physicochemical; settings: pH 7.4, octanol/phosphate buffer
Experimental: Sodium Phosphate buffer pH 7.4 (10 mM) was used as the aqueous phase and octanol was used as the organic phase. […] The sealed plate was incubated at 25 °C with continuous agitation at 2000 rpm for 2 hrs. Samples were then separated by centrifugation, diluted 100-fold with a mixture of H20 and acetonitrile containing internal standard, and analyzed via LC-MS/MS. The Log D value was calculated using the following equation: […]

CYP2E1 = target: T1, CYP2E1 (Homo sapiens, UniProt P05181); experiment: Drug-substrate based CYP inhibition, 2E1; format: in vitro ADME; settings: human liver microsomes
T1 construct: in the presence of human liver microsomes; from tissue; host or cells: human liver microsomes
Experimental: IVMT-Rx-4 was incubated with selective probe substrates of each CYP isoform in the presence of human liver microsomes. The formation of metabolite was quantified using LC-MS/MS methods. The extent of inhibition was assessed by calculating the remaining enzyme activity and percent inhibition based on analyte-to-internal standard area ratios, using the following equations:
Area Ratio = Peak AreaAnalyte / Peak AreaInternal Standard
Remaining Activity (%) = Area Ratiotest compound / Area Ratiovehicle ×100
Inhibition (%) = 100 ̶ Remaining Activity (%)

[4] = Pharmacokinetic studies, single dose IV, PO, SC, IP; format: in vivo, CD1 mice
Experimental: CD1 mice were randomly grouped to 4 groups (n=3 per group). […] Further, 20-µL blood samples were collected from a capillary in the retro-orbital plexus at pre-determined time intervals, placed into heparinized tubes, and immediately centrifuged (2500 × g, 15 min, 4 °C). The plasma was separated and kept frozen at −80 °C until analysis.
Then the samples were vortexed for 30 s. After centrifugation at 4000 rpm for 15 min at 4 °C, the supernatant was diluted 3 times with water.5 µL of the diluted supernatant was injected into the Shimadzu LC/MS/MS system with a Phenomenex Kinetex C18 column (2.1 mm × 50 mm, 5 µm, 100 Å ). The samples were chromatographed using a gradient mobile phase consisting of 95% water (0.1% formic acid)– 95% acetonitrile (0.1% formic acid), delivered at a flow rate of 0.6 mL/min.

[5] = Solubility study in bio-relevant media, buffers and solvents; format: physicochemical
PDGF-AA = PDGF-AA protein in conditioned media by ELISA; format: cell-based, human; settings: conditioned media of PC3-ML, ARCaP-M and C4–2B cells
Experimental: Human and mouse specific CXCL5, PDGF-AA ELISA kits were obtained from R&D Systems, USA. All ELISAs were performed using the manufacturer’s protocol.
Fig. 2. […] NF-κB activity was measured by absorbance at 450 nm (n = 3 ± SD; * p < 0.05). […] C) PDGF-AA protein levels were determined in the three PC cell line-derived conditioned media by ELISA. In both panels: n = 3 ± SD; * p < 0.05.

MST = experiment: Western blot, PDGF-AA activated HS5 cells: MST; format: cell-based, human; settings: PDGF-AA 10 ng/ML, 25 μM, 24 hrs
YAP = experiment: Western blot, PDGF-AA activated HS5 cells: YAP; format: cell-based, human; settings: PDGF-AA 10 ng/ML, 25 μM, 24 hrs
RM1-BM-Luc cells = experiment: Combination and survival study, RM1-BM-Luc syngeneic model; format: in vivo, C57BL/6 mice; settings: RM1-BM-Luc in C57BL/6, day 14, IVMT-Rx-4 30 mg/kg and/or Docetaxel 5 mg/kg 3X a week for two weeks
Experimental: Both syngeneic (C57BL/6) and athymic nude mice were used for survival studies. Tumor cells (RM1-BM-Luc or PC3-ML-Luc) were injected intracardially in a cohort of 40 animals. […] In the combination groups, both regimens were administered 3X a week for two-weeks at the same dose as a single therapy. Animals were imaged periodically and maintained until euthanization was required.
Fig. 5. […] A and B) RM1-BM-Luc (A) or PC3-ML-Luc (B) cells were implanted I.C. in C57BL/6 and athymic nude mice, respectively. […] BLI images were used to detect bone metastases (the percentage incidence of bone metastases in animals was calculated at a single time point, day 14). Values are presented at the bottom panel of the respective group (red, number of animals positive for metastasis and black, total number of experimental animals). C and D) Animals were kept until mandated euthanasia based on IACUC guidelines, considered as disease associated death. The Kaplan–Meier survival curves were generated using GraphPad in both models as described in (A) and (B), respectively. E and F) Log-rank test was performed and values between different experimental groups are presented.

[6] = Visible toxicity in animals; settings: in vivo

T1 sequence (P05181 whole entry): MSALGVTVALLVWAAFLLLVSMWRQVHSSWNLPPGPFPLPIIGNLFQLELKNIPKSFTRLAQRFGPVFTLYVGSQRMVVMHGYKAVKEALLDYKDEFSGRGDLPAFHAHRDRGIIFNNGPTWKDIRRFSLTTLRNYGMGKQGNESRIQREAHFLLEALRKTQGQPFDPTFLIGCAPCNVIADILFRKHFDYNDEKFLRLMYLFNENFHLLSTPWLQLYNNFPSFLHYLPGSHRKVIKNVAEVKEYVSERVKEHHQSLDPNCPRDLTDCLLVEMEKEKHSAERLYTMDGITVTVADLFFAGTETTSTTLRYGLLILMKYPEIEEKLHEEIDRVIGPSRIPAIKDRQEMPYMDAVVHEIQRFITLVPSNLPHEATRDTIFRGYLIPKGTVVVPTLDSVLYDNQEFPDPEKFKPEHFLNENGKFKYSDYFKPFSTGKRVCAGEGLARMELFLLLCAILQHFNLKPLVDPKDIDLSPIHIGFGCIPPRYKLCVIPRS

## Cc1cc(NC(=O)CCc2nnc(-c3ccccc3)o2)c(C)cc1N [IVMT-Rx-4]
[1]
  cell proliferation (colony formation): did not inhibit cell proliferation
[2]
  Thermodynamic solubility in PBS, pH 7.4: ~160 mg/ML
[2]; pH 7.4, aqueous buffer, thermodynamic from solid
  solubility thermodynamic: 160 mg/mL (≈ 476 mM)
[3]
  logD at 2 h: 1.49
CYP2E1
  IC50: ~8 µM
[4]; CD1, mouse, plasma, 10 mg/kg, all non-intravenous routes
  Tmax: ≤ 30 min
[4]; CD1, mouse, plasma, ip, 10 mg/kg, IP 10 mg/kg, read-out: Plasma half-life (converted)
  half-life: 61.2 min
[4]; CD1, mouse, plasma, iv, 3 mg/kg, IV 3 mg/kg, mean of 3 mice, read-out: T1/2 (plasma half-life) (converted)
  half-life: 27 min
[4]; CD1, mouse, plasma, po, 10 mg/kg, PO 10 mg/kg, read-out: Plasma half-life (converted)
  half-life: 82.2 min
[4]; CD1, mouse, plasma, sc, 10 mg/kg, SC 10 mg/kg, read-out: Plasma half-life (converted)
  half-life: 41.4 min
[4]; IP 10 mg/kg
  Maximum plasma concentration (Cmax): 1012 ng/mL
  time to reach Cmax (Tmax): 15 min
[4]; IV 3 mg/kg
  time after which plasma levels became undetectable: 4 h
[4]; PO 10 mg/kg
  Maximum plasma concentration (Cmax): 2047 ng/mL
  time to reach Cmax (Tmax): 15 min
[4]; PO, SC and IP routes, 10 mg/kg
  time after which plasma levels became undetectable: 8 h
[4]; SC 10 mg/kg
  Maximum plasma concentration (Cmax): 1017 ng/mL
  time to reach Cmax (Tmax): 30 min
[5]; FaSSIF, FeSSIF and SIF
  solubility in FaSSIF, FeSSIF and SIF: low solubility
[5]; MeOH, EtOH, CH2Cl2, Acetone and MeCN
  solubility in organic solvents: relatively good solubility
[5]; SGF
  solubility in SGF: relative high solubility
[5]; after the solubility test, both media
  stability in SGF and pH 1.2 buffer: degradation was observed
[5]; hexane
  solubility in hexane: almost insoluble
[5]; solubility increased with a decrease of pH
  pH dependence of solubility: pH dependent
[5]; water
  solubility in water: low solubility
PDGF-AA
  PDGF-AA protein level: decreased PDGF-AA
MST
  phosphorylation of MST: promoted the phosphorylation of MST
YAP
  phosphorylation of YAP at ser127: promoted
RM1-BM-Luc cells
  bone metastases, Incident/Total number tested: 3/8
[6]
  visible toxicity in animals: without provoking any visible toxicity
